“Also recorded” adds a separate entry of the source. Where no end group is shown, it is not given here.
How the values were obtained:
[1] = target: T1, Angiotensin converting enzyme (ACE) (Homo sapiens, UniProt P12821); test: ACE inhibitory (ACEI) activity, HHL substrate, HPLC detection of hippuric acid; type: biochemical; details: synthetic peptides; HHL 5 mM, ACE 0.025 U/mL, 37°C 60 min, HPLC 228 nm
T1 construct: purchased Sigma–Aldrich (Shanghai) Trading Co., Ltd
Description: Eighty microlitres of HHL solution (5 mM) and 30 μL of sample mixture were incubated at 37°C for 5 min. Then, 40 μL of ACE solution (0.025 U/mL) was added to the mixture, followed by incubation at 37°C for 60 min. The reaction was terminated by adding 120 μL of 1 M HCl. After the addition of 700 μL of pure water, the mixture was filtered through a 0.22 μm membrane ([25]). The experiment included four groups: a control group (pure water), a negative control group (blank digestion solution), a positive control group (protein mixture), and a sample group (protein digestion solution). In the control group, HCl was added immediately after ACE.
Chromatograms were recorded via an Agilent instrument (Agilent, California, USA). Column: CAPCELL CORE AQ C18, 4.6 × 150 mm, 5 μm (Shiseido, Tokyo, Japan). Column temperature: 30°C. Flow rate: 1 mL/min. The injection volume was 100 μL. Mobile phase: 0.1% trifluoroacetic acid aqueous solution (A) and pure acetonitrile (B). Detection wavelength: 228 nm. Elution gradient: 0–10 min, 80% A/20% B. The calculation method was as follows:
Inhibitionrate(%)=[PA]c-[PA]s/[PA]c-[PA]b×100%
where [PA]c, [PA]s, and [PA]b represented the peak area of HA at 228 nm of the control group, experimental group, and blank group, respectively.

[2] = In vitro simulated gastrointestinal digestion (pepsin, trypsin): digestibility / digestion stability; type: in vitro ADME; details: stability under digestion conditions in vitro; pepsin pH 2.0 37°C 2 h, then trypsin pH 8.0 37°C 2 h as described for the hydrolysate; mean ± spread
Description: In vitro digestion simulation was performed based on the method of Hao et al. ([24]). Broccoli protein suspension (5%, w/v) was hydrolyzed with papain (1%, E/S ratio) for 6 h (pH 7.0, 55°C). After hydrolysis, inactivated at 100°C for 10 min and cooled to 25°C. Based on the method of Hao et al. ([24]), the simulated digestion of broccoli papain hydrolysate was conducted. In short, 0.1 g pepsin (pH = 2.0) was mixed with the hydrolysate and placed at 37°C for 2 h. Then 0.2 g trypsin (pH = 8.0) was added and incubated at 37°C for 2 h. After enzymatic hydrolysis, the enzyme was inactivated at 95°C for 10 min, cooled to 25°C, and the supernatant was collected. Subsequently, freeze-dried broccoli crude peptide was applied to the determination of ACEI activity.
The crude protein hydrolysis of broccoli was analyzed by high performance liquid chromatography (Agilent 1260, California, USA). The Column was XBridge Peptides BEH C18 Column 130A, 4.6 × 250 mm, 5 μm (Waters, Massachusetts, USA). Column temperature: 37°C. Flow rate: 1 mL/min. Sample size: 100 μL. Mobile phase: 0.1% trifluoroacetic acid aqueous solution (phase A) and pure acetonitrile (phase B). Detection wavelengths: 214 and 280 nm. Elution gradient: 0–5 min, 100%A/0%B; 5–25 min, 60%A/40%B; 25–26 min, 20%A/80%B; 26–31 min, 20%A/80%B; 31–32 min, 100%A/0%B; 32–37 min, 100%A/0%B.

VSMCs [3] = test: CCK-8 cell viability of VSMCs in high glucose; type: cell-based, Sprague–Dawley rats; details: high glucose (HG); for VSMC proliferation / viability: peptides 0.0313-0.5 mg/mL
Description: (§1) Thoracic aortas from male Sprague–Dawley rats (250–300 g) were dispersed in HBSS solution, which contained 1 mg/mL collagenase II (146 U/mg, Worthington Biochemical Corp., Freehold, NJ) and 0.5 mg/mL elastase I (32 U/mg, Worthington Biochemical Corp., Freehold, NJ). The mixture was digested for 90 min to obtain the appropriate VSMCs. The obtained VSMCs were subsequently cultured in DMEM supplemented with 10% FBS, 2 mmol/L glutamine, and 1 g/L D-glucose at 37°C in a humidified atmosphere of 5% CO2. The purity of the VSMCs was evaluated by the smooth muscle cell-specific marker SM22α (>97% for the stained cells). All the VSMCs used for the experiments were between the 3rd and 8th passages.
The cells (4 × 10^3 cells/well) were seeded into 96-well plates and cultured overnight. The cells were subjected to serum deprivation for 24 h. Then, the culture mixture was removed, and 100 μL of free FBS culture mixture was added to the above culture mixture. Ten microliters of CCK-8 solution was added to each well. The plates were read with a BioTek Epoch 2 Microplate Spectrophotometer (Agilent Technologies, California, USA). The experiment was organized into seven groups, which included a normal group, a high glucose group, and peptide segments: HLEVR, LTEVR, LEHGF, HLVNK, and LLDGR. These segments were tested at concentrations of 0.0313, 0.0625, 0.125, 0.25, and 0.5 mg/mL.

Ang II = Ang II level in VSMCs cultured in high glucose (ELISA); type: cell-based, Sprague–Dawley rats; details: high glucose (HG) + peptide
Description: as §1
The cells (2 × 10^4 cells per well) were first seeded into 24-well plates overnight. The supernatants were collected to measure the expression levels of Ang II via angiotensin II ELISA kits (ER1637, FineTest, Wuhan, China) according to the manufacturer's protocol. The absorbance of each well at 450 nm was determined via a multimode plate reader (BioTek Epoch2, Santa Clara, US).

VSMCs [4] = test: Western blot of protein expression in VSMCs (Ang II-induced or high glucose); type: cell-based, Sprague–Dawley rats; details: for ACE expression / expression of PCNA, MMP2, Bcl2 and Bax: VSMCs in high glucose (HG) + peptide
Description: as §1
Protein was extracted with RIPA buffer. Equal amounts of protein were separated via 8–10% SDS–PAGE (ACE, Changzhou, China) and then transferred to 0.22 μm PVDF membranes (Millipore, Bedford, MA, USA). The membranes were blocked with 5% skim milk and incubated overnight with the appropriate primary antibodies. HRP-conjugated secondary antibodies were then applied for binding and visualization through Western blot luminol reagent. Densitometry quantification was performed with ImageJ-V1.8.0.

Caco-2 cells = test: Caco-2 cell monolayer transport model (absorption simulation); type: in vitro ADME; details: Caco-2 monolayer integrity marker, 12-well inserts, TEER 468.09 ± 37.54 Ω/cm^2
Description: Caco-2 cells were obtained from the Cell Bank of the Chinese Academy of Sciences. The cells were cultured in Dulbecco's modified Eagle's medium (DMEM) supplemented with 20% FBS and 1% penicillin/streptomycin (P/S) at 37°C and 5% CO2 in a humidified incubator.
Caco-2 cells were seeded in each chamber of a 12-well plate, which was equipped with cell culture inserts ([26]). The transepithelial electrical resistance (TEER) across the monolayer was measured every 2 days via a cell resistance meter (RE1600, Beijing Jegon Instrumentation Co., Ltd.). The integrity of the cell monolayer was assessed with fluorescein isothiocyanate (FITC). TEER values > 350 Ω/cm^2 were considered to indicate successful construction and validation of the Caco-2 cell transport model. The FITC permeability was < 5 × 10^−[…], indicating the integrity of the cell monolayer.
Broccoli protease hydrolysate was added to the apical (AP) side. After 120 min, the media from both the AP and basolateral (BL) sides were collected for subsequent analysis. The wells without cells or samples served as the control group, whereas the wells without samples served as the blank group.

T1 sequence (P12821 30-1306, species assumed): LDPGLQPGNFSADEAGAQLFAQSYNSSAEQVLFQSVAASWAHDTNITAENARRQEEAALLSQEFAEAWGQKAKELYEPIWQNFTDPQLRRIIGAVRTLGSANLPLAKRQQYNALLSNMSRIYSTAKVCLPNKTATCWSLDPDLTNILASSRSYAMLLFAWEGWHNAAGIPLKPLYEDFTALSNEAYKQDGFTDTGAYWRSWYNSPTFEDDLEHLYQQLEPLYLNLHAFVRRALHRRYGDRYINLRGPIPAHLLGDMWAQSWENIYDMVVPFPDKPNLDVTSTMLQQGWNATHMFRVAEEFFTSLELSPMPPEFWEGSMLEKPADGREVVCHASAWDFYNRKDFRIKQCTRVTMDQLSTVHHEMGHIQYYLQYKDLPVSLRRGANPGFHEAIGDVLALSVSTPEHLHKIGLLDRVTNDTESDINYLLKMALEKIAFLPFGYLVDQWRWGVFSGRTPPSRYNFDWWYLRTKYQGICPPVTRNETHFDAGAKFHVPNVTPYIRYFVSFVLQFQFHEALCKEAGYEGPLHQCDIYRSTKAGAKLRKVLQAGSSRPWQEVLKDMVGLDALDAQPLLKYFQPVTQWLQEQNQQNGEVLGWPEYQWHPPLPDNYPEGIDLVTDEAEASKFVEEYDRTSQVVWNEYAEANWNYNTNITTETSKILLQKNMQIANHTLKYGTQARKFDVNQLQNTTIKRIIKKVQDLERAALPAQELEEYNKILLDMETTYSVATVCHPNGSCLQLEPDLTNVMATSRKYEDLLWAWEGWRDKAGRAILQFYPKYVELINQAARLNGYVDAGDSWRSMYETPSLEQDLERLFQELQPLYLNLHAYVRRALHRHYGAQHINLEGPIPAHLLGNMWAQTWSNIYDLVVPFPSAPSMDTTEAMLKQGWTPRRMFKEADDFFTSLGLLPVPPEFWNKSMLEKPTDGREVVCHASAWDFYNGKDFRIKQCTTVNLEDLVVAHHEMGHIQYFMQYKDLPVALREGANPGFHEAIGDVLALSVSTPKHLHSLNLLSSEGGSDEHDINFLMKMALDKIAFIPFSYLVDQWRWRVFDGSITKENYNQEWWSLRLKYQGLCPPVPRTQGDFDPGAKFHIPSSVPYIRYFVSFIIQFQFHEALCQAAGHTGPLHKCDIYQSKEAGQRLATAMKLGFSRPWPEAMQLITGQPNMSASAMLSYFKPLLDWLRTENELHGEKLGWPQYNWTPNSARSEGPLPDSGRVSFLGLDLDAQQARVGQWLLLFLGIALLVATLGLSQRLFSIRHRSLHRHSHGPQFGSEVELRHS

HLVNK [HLVNK]
IC50 [1]: 0.06 ± 0.01 mM | Digestion stability (%) [2]: 95.78 ± 3.73% | VSMC proliferation / viability (VSMCs [3]): effectively reduce VSMC viability | Ang II levels in VSMCs (Ang II): significantly inhibit intracellular Ang II levels | Ang II levels in VSMCs (Ang II; listed as HLLVNK): significantly reduced Ang II levels | ACE expression (VSMCs [4]): modulated ACE expression | expression of PCNA, MMP2, Bcl2 and Bax (VSMCs [4]): significantly restored the expression of these proteins

HLEVR [HLEVR]
IC50 [1]: 3.19 ± 0.23 mM | Digestion stability (%) [2]: 94.27 ± 2.64%

lucifer yellow
apparent permeability coefficient (Papp) (Caco-2 cells): 2.87 ± 0.53 × 10^−7 cm^2/s

angiotensin II (DRVYIHPF; Angiotensin-2; UniProt P01019 25-32, looked up) [Ang II, angiotensin II, used to induce VSMC dysfunction]
downregulation of ACE2 expression (VSMCs [4]; VSMCs treated with Ang II): 15.60 ± 0.028% | upregulation of ACE expression (VSMCs [4]; VSMCs treated with Ang II): 136.50 ± 0.017% | upregulation of AT1R expression (VSMCs [4]; VSMCs treated with Ang II): 27.31 ± 0.020% | upregulation of BCL2 expression (VSMCs [4]; VSMCs treated with Ang II): 40.26 ± 0.051% | upregulation of ERK1/2/Total ERK (VSMCs [4]; VSMCs treated with Ang II): 128.17 ± 0.028% | upregulation of MMP2 expression (VSMCs [4]; VSMCs treated with Ang II): 14.97 ± 0.044% | upregulation of PCNA expression (VSMCs [4]; VSMCs treated with Ang II): 49.56 ± 0.01% | upregulation of pp38/Total p38 (VSMCs [4]; VSMCs treated with Ang II): 14.58 ± 0.041%

LEHGF [LEHGF]
IC50 [1]: 0.64 ± 0.02 mM | Digestion stability (%) [2]: 97.85 ± 6.31%

LLDGR [LLDGR]
IC50 [1]: 2.81 ± 0.12 mM

LTEVR [LTEVR]
IC50 [1]: 17.1 ± 1.37 mM | Digestion stability (%) [2]: 98.82 ± 3.92% | cell viability of VSMCs (VSMCs [3]; peptide 0.5 mg/mL): not significant | VSMC proliferation / viability (VSMCs [3]): effectively reduce VSMC viability | Ang II levels in VSMCs (Ang II): significantly reduced Ang II levels; also recorded: significantly inhibit intracellular Ang II levels | ACE expression (VSMCs [4]): modulated ACE expression | expression of PCNA, MMP2, Bcl2 and Bax (VSMCs [4]): significantly restored the expression of these proteins

— publication PMC11807808, “In vitro gastrointestinal digestion simulation screening of novel ACEI peptides from broccoli: mechanism in high glucose-induced VSMCs dysfunction” (Frontiers in Nutrition, 2025)
